The supplement of paper PMC10290057
Counter-ions that a name gives are not always drawn.

What was measured:
[1] = system: HCT116; experiment: efficacy (fitted maximal change in viability relative to DMSO control); higher = less cytotoxic (negative = loss of viability); settings: 48 h
[2] = system: HCT116; experiment: AC50 cell viability (CellTiter-Glo); higher = less potent; settings: 48 h
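For AC50 cell viability (CellTiter-Glo) in this document: HCT116 colorectal carcinoma cells screened at five concentrations per compound, luminescent viability scaled between DMSO wells and empty wells on each plate, curves fitted per compound.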
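For efficacy (fitted maximal change in viability relative to DMSO control) in this document: Luminescence-based viability readout, five doses per compound, normalized against on-plate DMSO and empty-well controls, followed by dose-response curve fitting for every drug.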

Structure (SMILES): CN(C)CCN1C(=O)c2cccc3cc(N)cc(c23)C1=O [Amonafide]
- efficacy [1]: -72.8%
- AC50 cell viability [2]: 4.17 µM

Structure (SMILES): CC(=O)[C@]1(N)Cc2c(O)c3c(c(O)c2[C@@H](O[C@H]2C[C@H](O)[C@H](O)CO2)C1)C(=O)c1ccccc1C3=O [Amrubicin]
- efficacy [1]: -75.8%
- AC50 cell viability [2]: 6.61 µM

Structure (SMILES): COc1cc(N[S+](C)(=O)[O-])ccc1Nc1c2ccccc2nc2ccccc12 [Amsacrine]
- efficacy [1]: -124%
- AC50 cell viability [2]: 11.8 µM

Structure (SMILES): S=C(NCc1ccc2c(c1)OCO2)N1CCN(c2ncnc3c2oc2ccccc23)CC1 [Amuvatinib]
- efficacy [1]: -38.8%
- AC50 cell viability [2]: 1.86 µM

Structure (SMILES): C=C1CCC2[C@](C)(CO)C(O)CC[C@]2(C)C1C/C=C1/C(=O)OCC1O (some centres undefined) [Andrographolide]
- efficacy [1]: -65.7%
- AC50 cell viability [2]: 7.42 µM

Structure (SMILES): C=C1CC[C@@H]2[C@](C)(CO)[C@H](O)CC[C@@]2(C)[C@@H]1C/C=C1/C(=O)OC[C@H]1O [Andrographolide]
- efficacy [1]: -68.1%
- AC50 cell viability [2]: 4.68 µM

Structure (SMILES): COc1cc2c(Oc3ccc4[nH]c(C)cc4c3F)ccnc2cc1OCC1(N)CC1 [Anlotinib]
- efficacy [1]: -112%
- AC50 cell viability [2]: 16.6 µM

Structure (SMILES): Cc1cccc(/C=N/Nc2cc(N3CCOCC3)nc(OCCc3ccccn3)n2)c1 [Apilimod]
- efficacy [1]: -99.4%
- AC50 cell viability [2]: 1.18 µM

Structure (SMILES): CCOC(=O)c1c(CSc2ccccc2)n(C)c2cc(Br)c(O)c(CN(C)C)c12 [Arbidol]
- efficacy [1]: -75.8%
- AC50 cell viability [2]: 14.8 µM

Structure (SMILES): CC/1=C/C[C@]23O[C@@]2(C)CC[C@@H]4[C@H](OC(=O)C4=C)[C@@H]13 [Arglabin]
- efficacy [1]: -79%
- AC50 cell viability [2]: 14.8 µM

Structure (SMILES): O=C1CCc2ccc(OCCCCN3CCN(c4cccc(Cl)c4Cl)CC3)cc2N1 [Aripiprazole]
- efficacy [1]: -93.8%
- AC50 cell viability [2]: 18.6 µM

Structure (SMILES): C[C@@H]1CC[C@H]2[C@@H](C)C(=O)O[C@@H]3O[C@@]4(C)CC[C@@H]1[C@]32OO4 [Artemisinin]
- efficacy [1]: -30.7%
- AC50 cell viability [2]: 0.0295 µM

Structure (SMILES): C[C@H]1[C@H](O)O[C@@H]2O[C@@]3(C)CC[C@H]4[C@H](C)CC[C@@H]1[C@@]24OO3 [Artenimol]
- efficacy [1]: -78.7%
- AC50 cell viability [2]: 2.63 µM

Structure (SMILES): C[C@H]1[C@H](OC(=O)CCC(=O)O)O[C@@H]2O[C@@]3(C)CC[C@H]4[C@H](C)CC[C@@H]1[C@@]24OO3 [Artesunate]
- efficacy [1]: -62.6%
- AC50 cell viability [2]: 4.17 µM

Structure (SMILES): O=C(Nc1ccc(OC(F)(F)Cl)cc1)c1cnc(N2CC[C@@H](O)C2)c(-c2ccn[nH]2)c1 [Asciminib]
- efficacy [1]: -80.6%
- AC50 cell viability [2]: 20.9 µM

Structure (SMILES): O=C(Nc1ccc([S+](=O)([O-])N2CCOCC2)cc1)c1cc(Cl)ccc1N[S+](=O)([O-])c1ccc(Cl)s1 [Ataciguat]
- efficacy [1]: -76%
- AC50 cell viability [2]: 23.5 µM

Structure (SMILES): CCCC1(CCC)CCC2(CCN(CCCN(CC)CC)C2)CC1 [Atiprimod]
- efficacy [1]: -99.3%
- AC50 cell viability [2]: 2.63 µM

Structure (SMILES): CC(C)c1c(C(=O)Nc2ccccc2)c(-c2ccccc2)c(-c2ccc(F)cc2)n1CC[C@@H](O)C[C@@H](O)CC(=O)O [Atorvastatin calcium]
- efficacy [1]: -63.9%
- AC50 cell viability [2]: 12.9 µM

Structure (SMILES): COc1ccc(CC2c3cc(OC)c(OC)cc3CC[N+]2(C)CCC(=O)OCCCCCOC(=O)CC[N+]2(C)CCc3cc(OC)c(OC)cc3C2Cc2ccc(OC)c(OC)c2)cc1OC (centres undefined) [Atracurium besylate]
- efficacy [1]: -77.8%
- AC50 cell viability [2]: 23.5 µM

Structure (SMILES): COc1cc(F)ccc1-c1ncnc(Nc2cccc(C[S+](C)(=N)[O-])c2)n1 (centres undefined) [Atuveciclib]
- efficacy [1]: -68%
- AC50 cell viability [2]: 0.468 µM

Structure (SMILES): CC[P](CC)(CC)=[Au][S][C@@H]1O[C@H](COC(C)=O)[C@@H](OC(C)=O)[C@H](OC(C)=O)[C@H]1OC(C)=O [Auranofin]
- efficacy [1]: -100%
- AC50 cell viability [2]: 2.63 µM

Structure (SMILES): CCN1CCN(C(=O)Cc2ccc(Nc3ncc(F)c(Nc4ccc(C(=O)Nc5ccccc5Cl)cc4)n3)cc2)CC1 [Aurora A Inhibitor I]
- efficacy [1]: -105%
- AC50 cell viability [2]: 7.42 µM

Structure (SMILES): CC(C)c1cc(C(C)C)c(CC(=O)N[S+](=O)([O-])Oc2c(C(C)C)cccc2C(C)C)c(C(C)C)c1 [Avasimibe]
- efficacy [1]: -82.3%
- AC50 cell viability [2]: 14.8 µM

Structure (SMILES): C=CC(=O)Nc1cccc(Oc2nc(Nc3ccc(N4CCN(C)CC4)c(F)c3)nc3[nH]ccc23)c1 [Avitinib]
- efficacy [1]: -123%
- AC50 cell viability [2]: 13.2 µM

Structure (SMILES): CNC(=O)c1ccccc1Sc1ccc2c(/C=C/c3ccccn3)n[nH]c2c1 [Axitinib]
- efficacy [1]: -80.4%
- AC50 cell viability [2]: 14.8 µM

Structure (SMILES): Cn1cnc([N+](=O)[O-])c1Sc1ncnc2nc[nH]c12 [Azathioprine]
- efficacy [1]: -83.7%
- AC50 cell viability [2]: 2.63 µM

Structure (SMILES): COc1ccc(N(C)c2nc(C)nc3ccccc23)cc1 [Azixa]
- efficacy [1]: -64.3%
- AC50 cell viability [2]: 0.00372 µM

Structure (SMILES): CCc1cc(/C(C)=N/OCc2ccc(C3CCCCC3)c(C(F)(F)F)c2)ccc1CN1CC(C(=O)O)C1 [BAF-312]
- efficacy [1]: -66.2%
- AC50 cell viability [2]: 20.9 µM

Structure (SMILES): Cc1nc2cnc3ccc(C#Cc4cccnc4)cc3c2n1-c1ccc(C(C)(C)C#N)cc1 [BAG-956]
- efficacy [1]: -92.6%
- AC50 cell viability [2]: 1.18 µM

Structure (SMILES): COc1ccc(-c2cc3nccn3c(Nc3ncccc3C(N)=O)n2)cc1OC [BAY61-3606]
- efficacy [1]: -66.9%
- AC50 cell viability [2]: 4.17 µM

Structure (SMILES): Nc1nc(-c2nn(Cc3ccccc3F)c3ncccc23)ncc1C1CC1 [BAY-41-2272]
- efficacy [1]: -51.2%
- AC50 cell viability [2]: 1.05 µM

Structure (SMILES): CC1=NN=C(C[C@@H]2\C=C(C3=CC=C(Cl)C=C3)/C4=CC=CC=C4[N]5C(=NN=C25)C)O1 [BAY-356]
- efficacy [1]: -72.7%
- AC50 cell viability [2]: 0.934 µM

Structure (SMILES): Cc1c(NC(=O)c2cc(C(N)=O)nc3cc(F)ccc23)c(C(F)(F)F)nn1Cc1ccc(C#N)cc1 [BAY-876]
- efficacy [1]: -89.3%
- AC50 cell viability [2]: 4.68 µM

Structure (SMILES): Cn1c(=O)n(-c2ccc(C(C)(C)C#N)cc2)c2c3cc(-c4cnc5ccccc5c4)ccc3ncc21 [BEZ-235]
- efficacy [1]: -60.5%
- AC50 cell viability [2]: 0.135 µM

Structure (SMILES): CC1(C)C(=O)N(c2ccc(C#N)c(C(F)(F)F)c2)C(=S)N1Cc1ccc(-c2c[nH]nn2)cc1 [BG-15a]
- efficacy [1]: -68.8%
- AC50 cell viability [2]: 20.9 µM

Structure (SMILES): C=CC(=O)N1CCC(C2CCNc3c(C(N)=O)c(-c4ccc(Oc5ccccc5)cc4)nn32)CC1 (centres undefined) [BGB-3111]
- efficacy [1]: -62.4%
- AC50 cell viability [2]: 18.6 µM

Structure (SMILES): O=[N+]([O-])c1cnc(Sc2nnc(O)n2-c2ccc3c(c2)OCCO3)s1 [BI-78D3]
- efficacy [1]: -94.7%
- AC50 cell viability [2]: 11.8 µM

Structure (SMILES): COC1=C(CN(C)C)C=C(OC)C(=C1)C/2=C/N(C)C(=O)C3=C2C=CN=C3 [BI-9564]
- efficacy [1]: -71.5%
- AC50 cell viability [2]: 14.8 µM

Structure (SMILES): CCCCCCOC(=O)/N=C(/N)c1ccc(NCc2nc3cc(C(=O)N(CCC(=O)OCC)c4ccccn4)ccc3n2C)cc1 [BIBR-1048]
- efficacy [1]: -59.4%
- AC50 cell viability [2]: 18.6 µM

Structure (SMILES): O=C1Nc2cc(Br)ccc2/C1=C1/Nc2ccccc2/C1=N\O [BIO]
- efficacy [1]: -102%
- AC50 cell viability [2]: 10.5 µM

Structure (SMILES): Nc1cc(C(F)(F)F)c(-c2cc(N3CCOCC3)nc(N3CCOCC3)n2)cn1 [BKM-120]
- efficacy [1]: -71.8%
- AC50 cell viability [2]: 1.66 µM

Structure (SMILES): CNC(=O)c1cc(Oc2ccc3nc(N[C@@H]4CCCC[C@H]4O)sc3c2)ccn1 [BLZ-945]
- efficacy [1]: -41.8%
- AC50 cell viability [2]: 20.9 µM

Structure (SMILES): NC(=O)c1ccc2[nH]c(-c3ccc(Oc4ccc(Cl)cc4)cc3)nc2c1 [BML-277]
- efficacy [1]: -67.3%
- AC50 cell viability [2]: 18.6 µM

Structure (SMILES): FC1=CC=C(C=C1)N2/C=C\C=C(C(=O)NC3=CC=C(OC4=C5C=C[NH]C5=NC=C4)C(=C3)F)/C2=O [BMS-2]
- efficacy [1]: -37.8%
- AC50 cell viability [2]: 18.6 µM

Structure (SMILES): O=C(Nc1ncc(-c2cc(C(F)F)nn2-c2c(Cl)cccc2Cl)s1)C1CC1 [BMS-3]
- efficacy [1]: -68%
- AC50 cell viability [2]: 0.833 µM

Structure (SMILES): CC(C)C(=O)Nc1ncc(-c2cc(C(F)F)nn2-c2c(Cl)cccc2Cl)s1 [BMS-5]
- efficacy [1]: -80.8%
- AC50 cell viability [2]: 18.6 µM

Structure (SMILES): COc1nc(OCc2cccc(-c3ccccc3)c2C)ccc1CNCCNC(C)=O [BMS-202]
- efficacy [1]: -89.9%
- AC50 cell viability [2]: 14.8 µM

Structure (SMILES): COC(=O)Nc1cc(Nc2cc(NC3CC3)c3ncc(C#N)n3n2)c(Cl)c(N2CCN(C)CC2)c1 [BMS-595]
- efficacy [1]: -103%
- AC50 cell viability [2]: 0.525 µM

Structure (SMILES): CC(C)c1cnn2c(NCc3ccccc3)cc(N[C@@H](CO)[C@H](O)CO)nc12 [BS-194]
- efficacy [1]: -59.1%
- AC50 cell viability [2]: 0.0833 µM

Structure (SMILES): C[C@@H]1CN(Cc2ccc(F)cc2)CCN1C(=O)COc1ccc(Cl)cc1NC(N)=O [BX-471]
- efficacy [1]: -59.8%
- AC50 cell viability [2]: 0.209 µM

Structure (SMILES): Cc1nc(NC(=O)N2CCCC2C(N)=O)sc1-c1ccnc(C(C)(C)C(F)(F)F)c1 (centres undefined) [BYL-719]
- efficacy [1]: -87.4%
- AC50 cell viability [2]: 3.72 µM

Structure (SMILES): Cc1ccc(NC(=O)c2ccc(CN3CC[C@H](N(C)C)C3)c(C(F)(F)F)c2)cc1Nc1nccc(-c2cncnc2)n1 [Bafetinib (INNO-406)]
- efficacy [1]: -131%
- AC50 cell viability [2]: 7.23 µM

Structure (SMILES): CO/C1=C/C(C)=C\[C@@H](C)[C@@H](O)[C@@H](C)C/C(C)=C\C=C/[C@H](OC)[C@@H]([C@@H](C)[C@@H](O)[C@H](C)[C@@]2(O)C[C@@H](O)[C@H](C)[C@@H](C(C)C)O2)OC1=O [Bafilomycin A1]
- efficacy [1]: -81.9%
- AC50 cell viability [2]: 0.035 µM

Structure (SMILES): C[N+](C)([O-])CCNc1ccc(NCC[N+](C)(C)[O-])c2c1C(=O)c1c(O)ccc(O)c1C2=O [Banoxantrone]
- efficacy [1]: -45.2%
- AC50 cell viability [2]: 2.09 µM

Structure (SMILES): COC(=O)[C@]12CCC(C)(C)C[C@H]1[C@H]3C(=O)\C=C\4[C@@](C)(CC[C@H]5C(C)(C)C(=O)\C(=C/[C@]45C)C#N)[C@]3(C)CC2 [Bardoxolone methyl]
- efficacy [1]: -91.9%
- AC50 cell viability [2]: 7.42 µM

Structure (SMILES): CC[S+](=O)([O-])N1CC(CC#N)(n2cc(-c3ncnc4[nH]ccc34)cn2)C1 [Baricitinib]
- efficacy [1]: -91.6%
- AC50 cell viability [2]: 29.5 µM

Structure (SMILES): O=C1Nc2nc(-c3c(O)cccc3OCC3CC3)cc([C@@H]3CCCNC3)c2CO1 [Bay-65-1942 hydrochloride]
- efficacy [1]: -90.5%
- AC50 cell viability [2]: 9.34 µM
